Patent publication US9770026B2, “Substituted pyrimidine compound and uses thereof” (Shenyang Sinochem Agrochemicals R&D Co., Ltd., priority 2012, dated 2017)

How the values were obtained:
corn rust = experiment: protectant activity in vivo against corn rust; settings: for pest or weed control at 400 ppm: read-out: protectant activity against corn rust in vivo, 400 ppm
carmine spider mite = experiment: bioactivity test against carmine spider mite, airbrush spray; assay type: in vivo; settings: for Insecticidal activity against carmine spider mite (% ): contrastive test
In short: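 Broadbean seedlings infested with adult mites were sprayed with compound (acetone/methanol stock diluted in 0.1% Tween 80 water) by airbrush at 0.7 kg/cm^2, 0.5 ml. Three replicates were run. Mortality was scored after 72 hrs.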

rice blast = experiment: microbe, parasite or virus in culture; assay type: cell-based; settings: for inhibition at 25 ppm: read-out: inhibition rate against rice blast, 25 ppm, in vitro
[1] = test system: Green peach aphids (Myzus Persicae Sulzer); experiment: bioactivity test against green peach aphid, airbrush foliar spray; assay type: in vivo; settings: for control (test results against green peach aphid): death rate after 48 hrs; for Insecticidal activity against peach aphid (%): contrastive test
In short: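 Aphids (15-30 per cabbage leaf disc) on moist filter paper were airbrush-sprayed at 10 psi, 0.5 mL, with compound from acetone:methanol (1:1) diluted in water with 0.1% tween 80. Held at 25±1 C, 60±5% RH; survivors counted after 48 hrs to give death rates.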

cucumber downy mildew = experiment: protectant activity in vivo against cucumber downy mildew; settings: for control effect against cucumber downy mildew (%): protectant activity
wheat powdery mildew = experiment: protectant activity in vivo against wheat powdery mildew; settings: 400 ppm
armyworm = experiment: bioactivity test against armyworm, airbrush spray; assay type: in vivo; settings: for control (test results against armyworm): mortality after 72 h
Diamond back moth = experiment: insecticidal activity against diamond back moth, airbrush spray; assay type: in vivo; settings: for control (test results against diamond back moth): mortality after 72 hrs
In short: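 Airbrush leaf-disc spray test: both faces of 2 cm cabbage discs received 0.5 ml of test solution at 0.7 kg/cm^2. Solutions were made in acetone:methanol (1:1) and brought to concentration with 0.1% Tween 80 in water. Ten second-instar larvae per disc, triplicates, were held at 25° C and 60˜70% R.H., with mortality recorded at 72 hrs.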

[2] = 100 ppm, mortality after 72 hrs
[3] = 600 ppm, mortality after 72 hrs

Cc1ncnc(NCCc2ccc(Oc3c(Cl)cc([N+](=O)[O-])cc3Cl)cc2)c1Cl [II-165]
pest or weed control at 100 ppm (corn rust; Zea mays, 168 h, read-out: protectant activity against corn rust in vivo, 100 ppm): 80 to 99%
pest or weed control at 400 ppm (corn rust; Zea mays, 168 h): 100%
pest or weed control at 600 ppm (carmine spider mite; Tetranychus cinnabarinus, 72 h, 600 ppm, mortality after 72 hrs): 80 to 99%
inhibition at 0.1 ppm (rice blast; Pyricularia oryzae, read-out: inhibition rate against rice blast, 0.1 ppm, in vitro): 100%
inhibition at 0.3 ppm (rice blast; Pyricularia oryzae, read-out: inhibition rate against rice blast, 0.3 ppm, in vitro): 100%
inhibition at 0.9 ppm (rice blast; Pyricularia oryzae, read-out: inhibition rate against rice blast, 0.9 ppm, in vitro): 100%
inhibition at 2.8 ppm (rice blast; Pyricularia oryzae, read-out: inhibition rate against rice blast, 2.8 ppm, in vitro): 100%
inhibition at 8.3 ppm (rice blast; Pyricularia oryzae, read-out: inhibition rate against rice blast, 8.3 ppm, in vitro): 100%
inhibition at 25 ppm (rice blast; Pyricularia oryzae): 100%

CCc1ncnc(NCCc2ccc(Oc3ccc(OC)cc3)nc2)c1Cl [III-199]
control (test results against green peach aphid) ([1]; 100 ppm): 100%
control (test results against green peach aphid) ([1]; 600 ppm): 100%
protectant activity against corn rust in vivo (corn rust; 400 ppm): 100%
protectant activity against cucumber downy mildew in vivo (cucumber downy mildew; 100 ppm): 100%
protectant activity against cucumber downy mildew in vivo (cucumber downy mildew; 400 ppm): 100%
Insecticidal activity against carmine spider mite (% ) (carmine spider mite; 10 mg/L): 87%
Insecticidal activity against carmine spider mite (% ) (carmine spider mite; 100 mg/L): 100%
Insecticidal activity against carmine spider mite (% ) (carmine spider mite; 600 mg/L): 100%
control against carmine spider mite (carmine spider mite; [2]): 100%
control against carmine spider mite (carmine spider mite; [3]): 100%
protectant activity against wheat powdery mildew in vivo (wheat powdery mildew): 100%
Insecticidal activity against armyworm (%) (armyworm; 10 mg/L): 64%
Insecticidal activity against armyworm (%) (armyworm; 100 mg/L): 100%
Insecticidal activity against armyworm (%) (armyworm; 600 mg/L): 100%
control (test results against armyworm) (armyworm; 100 ppm): 100%
control (test results against armyworm) (armyworm; 600 ppm): 100%
control (test results against diamond back moth) (Diamond back moth; 600 ppm): 100%

CCc1ncnc(NCCc2ccc(Oc3cccc(C(F)(F)F)c3)nc2)c1Cl [III-201]
control (test results against green peach aphid) ([1]; 100 ppm): 100%
control (test results against green peach aphid) ([1]; 600 ppm): 100%
protectant activity against corn rust in vivo (corn rust; 100 ppm): 100%
protectant activity against corn rust in vivo (corn rust; 400 ppm): 100%
control effect against cucumber downy mildew (%) (cucumber downy mildew; 12.5 mg/L): 98%
control effect against cucumber downy mildew (%) (cucumber downy mildew; 25 mg/L): 100%
control effect against cucumber downy mildew (%) (cucumber downy mildew; 50 mg/L): 100%
control effect against cucumber downy mildew (%) (cucumber downy mildew; 100 mg/L): 100%
control effect against cucumber downy mildew (%) (cucumber downy mildew; 400 mg/L): 100%
protectant activity against cucumber downy mildew in vivo (cucumber downy mildew; 25 ppm): 100%
protectant activity against cucumber downy mildew in vivo (cucumber downy mildew; 50 ppm): 100%
protectant activity against cucumber downy mildew in vivo (cucumber downy mildew; 100 ppm): 100%
protectant activity against cucumber downy mildew in vivo (cucumber downy mildew; 400 ppm): 100%
control against carmine spider mite (carmine spider mite; [3]): 100%
protectant activity against wheat powdery mildew in vivo (wheat powdery mildew): 100%
control (test results against armyworm) (armyworm; 600 ppm): 100%
control (test results against diamond back moth) (Diamond back moth; 600 ppm): 100%

FC(F)c1ncnc(NCCc2ccc(Oc3ccccc3)nc2)c1Cl [III-541]
control (test results against green peach aphid) ([1]; 100 ppm): 100%
control (test results against green peach aphid) ([1]; 600 ppm): 100%
protectant activity against corn rust in vivo (corn rust; 400 ppm): 100%
control effect against cucumber downy mildew (%) (cucumber downy mildew; 3.125 mg/L): 95%
control effect against cucumber downy mildew (%) (cucumber downy mildew; 6.25 mg/L): 100%
control effect against cucumber downy mildew (%) (cucumber downy mildew; 12.5 mg/L): 100%
control effect against cucumber downy mildew (%) (cucumber downy mildew; 25 mg/L): 100%
control effect against cucumber downy mildew (%) (cucumber downy mildew; 50 mg/L): 100%
control effect against cucumber downy mildew (%) (cucumber downy mildew; 100 mg/L): 100%
control effect against cucumber downy mildew (%) (cucumber downy mildew; 400 mg/L): 100%
protectant activity against cucumber downy mildew in vivo (cucumber downy mildew; 6.25 ppm): 100%
protectant activity against cucumber downy mildew in vivo (cucumber downy mildew; 12.5 ppm): 100%
protectant activity against cucumber downy mildew in vivo (cucumber downy mildew; 25 ppm): 100%
protectant activity against cucumber downy mildew in vivo (cucumber downy mildew; 50 ppm): 100%
protectant activity against cucumber downy mildew in vivo (cucumber downy mildew; 100 ppm): 100%
protectant activity against cucumber downy mildew in vivo (cucumber downy mildew; 400 ppm): 100%
control against carmine spider mite (carmine spider mite; [3]): 100%
protectant activity against wheat powdery mildew in vivo (wheat powdery mildew): 100%
control (test results against armyworm) (armyworm; 600 ppm): 100%
control (test results against diamond back moth) (Diamond back moth; 600 ppm): 100%

FC(F)c1ncnc(NCCc2ccc(Oc3ccc(Cl)cc3)nc2)c1Cl [III-547]
Insecticidal activity against peach aphid (%) ([1]; 10 mg/L): 100%
Insecticidal activity against peach aphid (%) ([1]; 100 mg/L): 100%
Insecticidal activity against peach aphid (%) ([1]; 600 mg/L): 100%
control (test results against green peach aphid) ([1]; 10 ppm): 100%
control (test results against green peach aphid) ([1]; 100 ppm): 100%
control (test results against green peach aphid) ([1]; 600 ppm): 100%
protectant activity against corn rust in vivo (corn rust; 400 ppm): 100%
control effect against cucumber downy mildew (%) (cucumber downy mildew; 25 mg/L): 100%
control effect against cucumber downy mildew (%) (cucumber downy mildew; 50 mg/L): 100%
control effect against cucumber downy mildew (%) (cucumber downy mildew; 100 mg/L): 100%
control effect against cucumber downy mildew (%) (cucumber downy mildew; 400 mg/L): 100%
protectant activity against cucumber downy mildew in vivo (cucumber downy mildew; 25 ppm): 100%
protectant activity against cucumber downy mildew in vivo (cucumber downy mildew; 50 ppm): 100%
protectant activity against cucumber downy mildew in vivo (cucumber downy mildew; 100 ppm): 100%
protectant activity against cucumber downy mildew in vivo (cucumber downy mildew; 400 ppm): 100%
Insecticidal activity against carmine spider mite (% ) (carmine spider mite; 100 mg/L): 100%
Insecticidal activity against carmine spider mite (% ) (carmine spider mite; 600 mg/L): 100%
control against carmine spider mite (carmine spider mite; [2]): 100%
control against carmine spider mite (carmine spider mite; [3]): 100%
protectant activity against wheat powdery mildew in vivo (wheat powdery mildew): 100%
Insecticidal activity against armyworm (%) (armyworm; 10 mg/L): 95%
Insecticidal activity against armyworm (%) (armyworm; 100 mg/L): 100%
Insecticidal activity against armyworm (%) (armyworm; 600 mg/L): 100%
control (test results against armyworm) (armyworm; 100 ppm): 100%
control (test results against armyworm) (armyworm; 600 ppm): 100%
Insecticidal activity against diamond back moth (%) (Diamond back moth; 10 mg/L): 57%
Insecticidal activity against diamond back moth (%) (Diamond back moth; 100 mg/L): 100%
Insecticidal activity against diamond back moth (%) (Diamond back moth; 600 mg/L): 100%
control (test results against diamond back moth) (Diamond back moth; 100 ppm): 100%
control (test results against diamond back moth) (Diamond back moth; 600 ppm): 100%

FC(F)c1ncnc(NCCc2ccc(Oc3ccc(C(F)(F)F)cc3Cl)nc2)c1Cl [III-661]
control (test results against green peach aphid) ([1]; 100 ppm): 100%
control (test results against green peach aphid) ([1]; 600 ppm): 100%
protectant activity against corn rust in vivo (corn rust; 100 ppm): 100%
protectant activity against corn rust in vivo (corn rust; 400 ppm): 100%
inhibition rate against rice blast (rice blast; 8.3 ppm, in vitro): 100%

Cc1cc(Cl)ccc1Oc1ccc(CCNc2ncnc(Cl)c2Cl)cn1 [III-2630]
pest or weed control at 400 ppm (corn rust; Zea mays, 168 h): 100%
pest or weed control at 50 ppm (cucumber downy mildew; Cucumis sativus, 168 h, read-out: protectant activity against cucumber downy mildew in vivo, 50 ppm): 80 to 99%
pest or weed control at 100 ppm (cucumber downy mildew; Cucumis sativus, 168 h, read-out: protectant activity against cucumber downy mildew in vivo, 100 ppm): 80 to 99%
pest or weed control at 400 ppm (cucumber downy mildew; Cucumis sativus, 168 h, read-out: protectant activity against cucumber downy mildew in vivo, 400 ppm): 100%
inhibition at 25 ppm (rice blast; Pyricularia oryzae): 80 to 99%
